One data set has as its system proteasome. The settings on record: in animals; cited from earlier work.
The test system of data set [1] is models of multiple myeloma, hematologic, and solid tumors. The settings on record: in animals; cited from earlier work.
For data set [2], the system named is solid and hematologic tumor cells. The settings on record: cited from earlier work.
The nature of data set [3]: storage stability of amorphous carfilzomib. It is filed as physicochemical. The following applies: at 2-8° C. Here is the method: Carfilzomib amorphous form obtained according to the process of the present application is stable at 2-8° C. for extended periods, i.e., more than 3 month.

For `CC(C)C[C@H](NC(=O)[C@H](CCc1ccccc1)NC(=O)CN1CCOCC1)C(=O)N[C@@H](Cc1ccccc1)C(=O)N[C@@H](CC(C)C)C(=O)[C@@]1(C)CO1` [Carfilzomib, (2S)—N—((S)-1-((S)-4-methyl-1-((R)-2-methyloxiran-2-yl)-1-oxopentan-2-ylcarbamoyl)-2-phenylethyl)-2-((S)-2-(2-morpholinoacetamido)-4-phenylbutanamido)-4-methylpentanamide], the “proteasome activity in blood and tissue” value in the data set with proteasome is “inhibited proteasome activity”. Also, the tumor growth result in data set [1] is recorded as “delayed tumor growth”. For the same molecule, the “activity in vitro in tumor cells” value in data set [2] is “antiproliferative and proapoptotic activities”.
Turning to `CC(C)C[C@H](NC(=O)[C@H](CCc1ccccc1)NC(=O)CN1CCOCC1)C(=O)N[C@@H](Cc1ccccc1)C(=O)N[C@@H](CC(C)C)C(=O)[C@@]1(C)CO1` [Carfilzomib amorphous form], the “stable for extended periods” value in data set [3] was “more than 3 month”.

Source of the values: patent publication US10301353B2, “Co-crystal of carfilzomib with maleic acid and process for the preparation of pure carfilzomib” (DR. REDDY'S LABORATORIES LIMITED, priority 2014, dated 2019).
